Data on two compounds can be found in patent US9272927B2, “Method for preventing growth of microorganisms, and a combination for the prevention of microbial growth” (KEMIRA, OYJ, priority 2006, dated 2016).

Common to all, as to format: cell-based
In test [1] the test system is biofilm of a mixture of adherent bacteria (Deinococcus geothermalis, Pseudoxanthomonas taiwanensis and Meiothermus silvanus). As to the kind of experiment: Test for destructing a biofilm on stainless steel pegs, regrowth of new biofilm stained with safranin (Example 5). More on the design: key: ++++: great amounts of biofilm were formed; ++: clearly reduced formation of the new biofilm, but not the complete inhibition thereof; −: completely inhibiting the new biofilm. The following applies: total contact time 3 hours. The method, then: A test for destructing a biofilm was performed as described in the document FI 117056 B (Kemira Oyj). A biofilm was pregrown on lidplates having stainless steel pegs (3 d, 45° C., agitation at 150 rpm.). Clear filtrate of a fine paper machine served as the water (pH 7.6, ORP 71 mV), while a mixture of adherent bacteria (Deinococcus geothermalis, Pseudoxanthomonas taiwanensis and Meiothermus silvanus) grown in the laboratory was used for inoculation. After identical biofilms were grown on all the pegs of the lids, the lids were removed from the clear filtrate used for cultivation, washed with tap water and placed on plastic plates with 12 wells, one peg per well. 3.5 ml of the clear filtrate from the same paper machine, and the biocides to be tested were added in advance to each well. The pegs with biofilms were first immersed into the wells for 15 minutes, followed by removal of the plates for a moment for the addition of the other components of the biocidal combinations to the wells. Exposure to biocides was continued to attain a total contact time of 3 hours. Then, viability of the biofilms was determined by transferring the peglids to fresh 12-well plates where each well contained 2 ml of sterile cultivation broth, followed by cultivating the plates for 19 hours at 45° C. while mixing at 150 rpm. […]

Test [2] deals with aerobic bacteria present in circulation water. Briefly: Bactericidal test on circulation water from an alkaline fine paper machine, agar plate count (Example 6). The conditions noted are these: for killing of bacteria: 3 hours; for re-growth of bacteria: single biocide only, dosages that had yielded an efficient kill, within 1 day. The method, then: Circulation water (pH 8.2, ORP+169 mV) was collected from an alkaline fine paper machine (producing uncoated copy paper) and divided in 11 plastic containers. When two different biocides were dosed in to same container, the peracid was dosed first, the sample mixed thoroughly, and the second biocide was added within 5 to 10 minutes. All biocide dosages are reported as ppm (mg/l) of the commercial product, for example 20 ppm of performic acid (PFA) equilibrium product equals about 2 ppm as performic acid active substance, 12 ppm of BCDMH product equals about 4 ppm as active chlorine and 30 ppm of MCDMH product equals about 3 ppm as active chlorine. After biocide dosing the containers were capped and incubated at paper machine temperature (45° C.) with continuous agitation. The killing efficacy of different biocide dosages was measured 3 hours and 1 day after the biocide dosing using agar plate count method (PCA agar, 45° C., and 2 days).

Test [3] has as its system aerobic bacteria present in broke. Briefly: Bactericidal test on dilute broke of a board machine (Example 1). The conditions noted are these: BCDMH 30 ppm alone; contact time 24 hours. As to the method:
Dilute broke of a board machine (pH 7.8, oxidation reduction potential (ORP) 40 mV) was divided into 10 separate jars, and biocides to be tested were dosed. Concentrations are expressed in ppm (mg/l) of the commercially available product. In tests where two different agents were dosed into a single jar, the jar was closed after the first pipetting, the broke sample was vigorously agitated, followed by the addition of the second agent during 5 to 10 minutes. Jars were incubated under conditions corresponding to those in the broke system (45° C., mixing), and thereafter, viable aerobic bacterial counts were determined by cultivation after exposure periods of 4 and 24 hours.
In this bactericidal test on broke, killing efficacy of BCDMH and ePAA used alone and in combinations were compared, two thirds of BCDMH being replaced in the combinations with peracetic acid used in threefold amounts. For instance BCDMH 10 ppm versus ePAA 30 ppm versus BCDMH 3.3 ppm+ePAA 20 ppm.
The combination “BCDMH 3.3 ppm+ePAA 20 ppm” means that BCDMH was added prior to ePAA.

As to `CC1(C)C(=O)NC(=O)N1Cl` [MCDMH, monochlorodimethyl hydantoin], the “formation of new biofilm” value in test [1] (60 ppm of MCDMH alone) is listed as “++++”. The killing of bacteria entry in test [2] (45 ppm of MCDMH alone) was “most efficient”. Besides, the re-growth of bacteria entry in test [2] is given as “active re-growth of bacteria had occurred”.

Take `CC1(C)C(=O)N(Cl)C(=O)N1Br` [BCDMH, bromochlorodimethyl hydantoin]: the inhibition of regrowth result in test [3] is given as “inhibited more effectively by BCDMH 30 ppm than PAA alone”. In addition, the “formation of new biofilm” value in test [1] (16 ppm of BCDMH alone) is given as “++”. The killing of bacteria result in test [2] (12 ppm of BCDMH alone) is “most efficient”. Further, the re-growth of bacteria entry in test [2] is “active re-growth of bacteria had occurred”.
